Measured values from patent US20160324152A1, “Compositions And Methods For Killing And/Or Immobilizing Insects” (The United States of America, as represented by the …, priority 2015, published 2016).
Like-named read-outs stand apart in the source and are kept apart here.

Test system: Solenopsis invicta workers
Settings: topical
Protocol: Topical Bioassay: Mortalities of S. invicta workers after topical treatment with Ethal TDA surfactants were determined. For ease of handling and obtaining uniform body weight, only large workers were used in the bioassay. Acetone was used as a solvent. The solution (10% w/v) was applied with a 0.779 μl capillary tube. All surfactants were tested at a concentration of 77.9 μg/ant. In the control, ants were only treated with 0.779 μl acetone. Treated ants were placed in a 30-ml capped cup at room temperature (˜23° C.) and dead ants were counted at 24 h. Three colonies were originally tested. There were 3-6 replicates for each colony. A single replicate consisted of 17 to 20 ants. In order to assess the mortality at 48 h, another three colonies were tested. For these three colonies, dead ants were counted at both 24 h and 48 h. Mortalities were adjusted using Abbott's formula (Abbott, W. S., J. Econ. Entomol., 18: 265-267 (1925)) before being used in statistical analysis. For analyzing 24 h mortality, data for all six colonies were used.
We also tested the toxicity of piperonyl butoxide (PBO) against red imported fire ants. […] Topical bioassay as described above was used: Mortalities of S. invicta workers after topical treatment with PBO were determined. […] Treated ants were placed in a 30-ml capped cup at room temperature (˜23° C.) and dead ants were counted at 24 h. […]

CCCCCCCCCCCC(C)=O [2-tridecanone]
LD50 (colony 288, PBO 0 μg/ant): 18.96 μg/ant
LD50 (colony 295, PBO 0 μg/ant): 22.82 μg/ant
